From patent publication US20140294856A1, “COMBINATION TREATMENT COMPRISING A HDAC6 INHIBITOR AND AN AKT INHIBITOR” (priority 2011, published 2014)
In brackets after ≈: the same amount, converted by molar mass.

What was measured:
[1] = biological target: HDAC-8 (Homo sapiens, UniProt Q9BY41); test: Enzyme inhibition activity, Fluor-de-Lys kit; type: biochemical
From the text: HDAC-C1A is a particularly preferred HDAC6 inhibitor of the invention. […] HDAC-C1A is approximately 7-fold more specific for HDAC6 than for HDAC-8 and approximately 17-fold more specific for HDAC6 when compared with HDAC1 (see Table 1). […] As brain permeability remains a major limitation for drug treatment of CNS disorders, HDAC-C1A, or compounds derived from HDAC-C1A, appear to be very promising drug candidates.
FIG. 20 (Table 1): Enzyme inhibition activity using HeLa nuclear extract and the Fluor-de-Lys kit.

[2] = tested on: HCT116 cells; test: Acetylation biomarkers by western blotting (with washout); type: cell-based, human
Procedure: FIG. 1. HDAC-C1A irreversible activity. A. […] inhibitory activity of HDAC-C1A was tested using HeLa nuclear extracts and compared to the negative (reversible) control HDAC-C1B. B Growth inhibitory effect of the different compounds in HCT-116 cells at indicated time and compared to growth inhibitory after 72 hours of incubation.
HSP90 protein expression was not altered (FIG. 2).

[3] = tested on: KELLY; test: Growth inhibition, SRB assay, 72 hours; type: cell-based; conditions: KELLY neuroblastoma
[4] = Pharmacokinetics following a single injection; type: in vivo
Procedure: FIG. 4. Pharmacokinetic profile of HDAC-C1A following a single injection at 20 mg/kg.
FIG. 22 (Table 3): Pharmacokinetic data of HDAC-C1A following a single injection.
(§1) The drug was stable after oral, parenteral and intravenous administration for 24 h (last time point examined). […] The Cma and AUC0-24h following i.p. injection (20 mg/kg) were 3.2 μg/mL and 11.2 μg/mL*h, respectively. […] The acid instability of HDAC-C1A could therefore be improved by enteric coating as a means to avoid breakdown in the stomach. […] HDAC-C1A was also tested in HCT116 human colon cancer xenograft model using a refined dose and scheduling. […] This dose was non-toxic (no reduction in body weight) (FIG. 5.D). The acetylated form of α-tubulin (biomarker of response to HDAC6 inhibition) could be observed after 14 days of treatment and could be detected as early as 6 hours after the 1st injection (FIG. 5.E.). The acetylated form of Histone 3 (biomarker of response of class I histones) could be observed as early as 2 hours after the 1st injection and remain after 14 days of treatment (FIG. 5.E).

[5] = tested on: HCT116 xenograft; test: Biomarkers screening in HCT116 xenograft tumours; type: in vivo, mice
Procedure: FIG. 5. Anti-tumour activity of HDAC-C1A in A2780 (A & B) and HCT116 (C & D) xenograft models (Tumours volumes relative to tumour volume at day 1 (A & C) and corresponding body weight (relative to body weight at day 1) (B & D)). E. Biomarkers screening at early time points following a single injection of HDAC-C1A in HCT116 xenograft at 40 mg/kg compared to a continuous 14 days treatment at the indicated dose. Tumours were excised 6 hours following the last injection.
as §1

[6] = tested on: ABC transporters; test: Expression of ABC transporters (protein and mRNA) in tumours; type: in vivo, mice; conditions: 14 days of treatment
[7] = tested on: A2780; test: Phospho-AKT levels by western blotting; type: cell-based, human; conditions: ovarian cancer cell line A2780
[8] = tested on: HCT116 cells; test: Acetylated PTEN and PTEN expression; type: cell-based, human
Procedure: FIG. 12. HDAC-C1A treatment is associated with an increase of phopsho-AKT that can be reversed by PI3K/AKT/mTOR inhibitors. […] Similarly, Phospho-Pras 40 seems to increase following treatment with HDAC-C1A. Densitometry data could reinforce this statement (ratio between the total form and the Phospho form of Pras40 that decreases at 24 hours). […] No difference could be seen in endometrial cancer cell line, […]. C. […] E. BEZ-235 can fully reverse the increase of Phospho-AKT mediated by HDAC-C1A in HCT-116 cells. BEZ-235 and HDAC-C1A were co-incubated at the indicated time and concentrations.
FIG. 17. A. Dose and time impact of Tubastatin A on acetylated form of tubulin and histones H3 and H4 and on phospho-AKT levels that could be reversed with BEZ-235 in HCT-116 cells. […] HCT116 were immunoprecipitation with PTEN and stained with HDAC1 or HDAC6, immunoprecipitation with HDAC6 and stained with PTEN. No HDAC1 could have been detected in contrast with HDAC6. There was no effect of the different inhibitors on the different protein levels.
PTEN protein expression was not altered. In vivo, on the gene array, the mRNA levels of PTEN were not altered in HCT116 xenograft model following treatment with HDAC-C1A after 1 and 14 days when compared with vehicle treated group (FIG. 7).
We have shown that HDAC-C1A is associated with increased acetylation of α-tubulin, acetyl HSP90 and acetyl PTEN with only a minor effect on the regulation of the genes (less than 0.7% of the genes have been de-regulated after 14 days of treatment in vivo). We believe that the acetylation of PTEN, via the inhibition of HDAC6, leads to an increase of P-AKT. […] No effect of BEZ235 could be seen on the acetylated status of α-tubulin and histones H3 and H4.

[9] = tested on: HCT116 tumours; test: Phospho-AKT levels in HCT116 tumours; type: in vivo, mice
[10] = biological target: MRP1 (Homo sapiens, UniProt P33527); test: Impact of MRP1 on cytotoxicity, MK-571 pre-treatment in A549 cells
MRP1, sequence (P33527 whole entry): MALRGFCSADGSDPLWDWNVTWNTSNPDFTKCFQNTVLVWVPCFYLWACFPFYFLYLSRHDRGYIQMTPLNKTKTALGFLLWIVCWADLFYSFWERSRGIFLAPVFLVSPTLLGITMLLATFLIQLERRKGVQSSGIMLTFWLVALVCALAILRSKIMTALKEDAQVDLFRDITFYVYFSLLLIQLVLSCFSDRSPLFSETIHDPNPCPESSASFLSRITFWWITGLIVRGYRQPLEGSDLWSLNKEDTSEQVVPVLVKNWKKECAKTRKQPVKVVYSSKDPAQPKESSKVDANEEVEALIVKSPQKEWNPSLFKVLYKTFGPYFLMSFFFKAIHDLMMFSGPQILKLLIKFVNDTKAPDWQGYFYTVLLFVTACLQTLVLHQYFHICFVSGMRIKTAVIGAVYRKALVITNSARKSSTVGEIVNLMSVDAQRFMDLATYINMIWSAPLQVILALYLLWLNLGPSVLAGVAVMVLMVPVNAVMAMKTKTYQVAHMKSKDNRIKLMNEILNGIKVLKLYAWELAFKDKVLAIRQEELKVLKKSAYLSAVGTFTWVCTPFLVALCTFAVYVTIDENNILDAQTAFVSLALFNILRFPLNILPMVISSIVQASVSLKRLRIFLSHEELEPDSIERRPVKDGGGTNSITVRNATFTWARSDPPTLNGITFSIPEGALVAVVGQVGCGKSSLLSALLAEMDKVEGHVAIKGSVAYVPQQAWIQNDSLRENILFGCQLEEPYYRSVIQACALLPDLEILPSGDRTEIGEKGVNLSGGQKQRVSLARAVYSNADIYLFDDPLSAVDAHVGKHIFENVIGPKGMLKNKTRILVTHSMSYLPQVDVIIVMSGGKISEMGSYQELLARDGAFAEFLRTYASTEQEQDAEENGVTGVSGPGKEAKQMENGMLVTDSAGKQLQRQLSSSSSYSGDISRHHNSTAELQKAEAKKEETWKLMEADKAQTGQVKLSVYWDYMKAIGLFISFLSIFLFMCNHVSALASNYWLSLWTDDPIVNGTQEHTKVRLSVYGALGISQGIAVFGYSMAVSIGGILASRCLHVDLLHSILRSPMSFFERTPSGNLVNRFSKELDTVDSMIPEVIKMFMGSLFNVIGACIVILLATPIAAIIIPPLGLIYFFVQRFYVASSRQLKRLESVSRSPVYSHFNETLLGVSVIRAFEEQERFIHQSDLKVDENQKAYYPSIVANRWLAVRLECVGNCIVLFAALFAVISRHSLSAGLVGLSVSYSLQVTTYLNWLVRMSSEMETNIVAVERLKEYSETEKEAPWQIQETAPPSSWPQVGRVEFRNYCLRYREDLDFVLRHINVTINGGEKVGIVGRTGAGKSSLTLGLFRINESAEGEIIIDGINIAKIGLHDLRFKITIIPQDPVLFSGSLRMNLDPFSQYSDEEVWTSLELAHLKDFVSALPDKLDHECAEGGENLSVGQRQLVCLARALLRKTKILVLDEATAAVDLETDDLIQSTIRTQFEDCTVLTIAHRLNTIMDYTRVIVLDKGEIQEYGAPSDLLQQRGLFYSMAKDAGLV
Procedure: The impact of ABC transporters on the cytotoxicity of HDAC-C1A was assessed using cell lines with differential expression of the ABC transporters and by using inhibitors.

HDAC-8, sequence (Q9BY41 whole entry): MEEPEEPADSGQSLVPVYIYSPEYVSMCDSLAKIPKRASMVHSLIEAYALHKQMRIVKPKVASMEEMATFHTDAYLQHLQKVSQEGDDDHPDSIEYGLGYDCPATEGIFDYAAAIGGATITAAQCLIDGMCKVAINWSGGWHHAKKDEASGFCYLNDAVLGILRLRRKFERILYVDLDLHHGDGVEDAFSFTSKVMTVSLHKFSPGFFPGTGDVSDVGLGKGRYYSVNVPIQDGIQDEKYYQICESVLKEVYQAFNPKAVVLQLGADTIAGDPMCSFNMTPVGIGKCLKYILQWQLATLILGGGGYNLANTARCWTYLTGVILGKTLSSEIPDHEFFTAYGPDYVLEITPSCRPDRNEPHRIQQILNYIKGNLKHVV

**Q.** Which “fold more specific for HDAC6 than for HDAC-8” value [1] does the source give for `CC(/C=C/C(=O)NO)=C\c1ccc(NS(=O)(=O)c2ccc(N(CCCl)CCCl)cc2)cc1` [HDAC-C1A] here?
**A.** approximately 7 fold

**Q.** And the HSP90 protein expression [2]?
**A.** not altered

**Q.** And the “acetylation markers at low concentration and early time point” value ([2]; 1 μM and 4 hours)?
**A.** increase of acetyl-tubulin and other markers of HDAC6 inhibition

**Q.** What about the “acetyl form of HSP90” value ([2]; 4 h and 24 h, 1 μM and 10 μM) of the same compound?
**A.** dose and time dependent increase

**Q.** And the “acetylation of histone H3, H4 and α-tubulin after washout” value ([2]; treatment 4 hours, then washout)?
**A.** maintained at 4 hours after washout

**Q.** And the GI50 [3]?
**A.** 0.14 µg/mL (≈ 0.281 µM)

**Q.** What about the AUC0-24h ([4]; given orally) of the same compound?
**A.** 94000 ng·h/mL

**Q.** And the Cmax ([4]; given orally)?
**A.** 700 ng/mL

**Q.** And the AUC0-24h ([4]; i.p. injection 20 mg/kg)?
**A.** 11200 ng·h/mL

**Q.** And the Cmax ([4]; i.p. injection 20 mg/kg)?
**A.** 3200 ng/mL

**Q.** And the “dose proportionality of pharmacokinetics” value ([4]; i.p. injection, up to 160 mg/kg)?
**A.** dose proportionate

**Q.** What about the oral bioavailability ([4]; in vivo, po) of the same compound?
**A.** 16%

**Q.** What about the stability after administration ([4]; oral, parenteral and intravenous, 24 h last time point) of the same compound?
**A.** stable

**Q.** And the “anti-apoptotic factor Bcl2” value ([5]; after 48 hours)?
**A.** down-regulated

**Q.** What about the “earliest detection of acetylated Histone 3 after 1st injection” value ([5]; single injection 40 mg/kg) of the same compound?
**A.** 2 h

**Q.** What about the “earliest detection of acetylated α-tubulin after 1st injection” value ([5]; single injection 40 mg/kg) of the same compound?
**A.** 6 h

**Q.** And the “expression of ABC transporters vs vehicle” value [6]?
**A.** No difference

**Q.** And the P-AKT levels [7]?
**A.** increased

**Q.** What about the PTEN protein expression [8] of the same compound?
**A.** not altered

**Q.** What about the “acetyl form of PTEN” value ([8]; 4 h and 24 h, 1 μM and 10 μM) of the same compound?
**A.** dose and time dependent increase

**Q.** And the P-AKT in tumours ([9]; HDAC-C1A alone 20 mg/kg, 6 hours)?
**A.** up-regulation

**Q.** What about the P-AKT in tumours ([9]; HDAC-C1A combined with API-2, 24 hours after single injection) of the same compound?
**A.** still showed increased P-AKT

**Q.** What about the P-AKT in tumours ([9]; combination regimen BEZ-235 + HDAC-C1A, 6 hours) of the same compound?
**A.** No P-AKT was detected

**Q.** What about the “substrate of MRP1” value [10] of the same compound?
**A.** non-substrates
